Assay results from patent US20250241876A1, “ANTI-TUMOR COMPOUNDS AND METHODS OF USE THEREOF AND SYNTHESIS THEREOF” (Atossa Therapeutics, Inc., priority 2023, published 2025).

Columns and labels:
Format in all cases: cell-based
[1] = system: T47D cells with Y537S or D538G mutations; experiment: Proliferation, T47D ESR1 mutants
Source text: (§1) Approximately 80% of breast cancers express estrogen receptor alpha (ERα, ESR1) which drives cancer progression. […] (Z)-Endoxifen (ENDX), an active metabolite of tamoxifen, is a potent orally bioavailable selective estrogen receptor modulator with a favorable safety profile now under development for breast health applications. Its synthesis yields endoxifen-related byproduct new chemical entities (NCE), including Compound 7b, Compound 7a, Compound 5b and Compound 5a. This study compared the anti-estrogenic effects of these compounds to (Z)-endoxifen in ERα+ breast cancer cell lines (MCF7, T47D, UCD12), including those with ESR1 mutations (Y537S, D538G) linked to endocrine resistance.

MCF7 cells [2] = experiment: 2D culture proliferation, MCF7; details: 2D cultures, estrogen-containing media
Source text: as §1

[3] = system: ERα+ breast cancer cell lines (MCF7, T47D, UCD12), including those with ESR1 mutations (Y537S, D538G); experiment: 2D culture proliferation, all lines, Example 29; details: 2D cultures, estrogen-containing media, 0.02-5 μM, across all lines; p<0.0001 vs. vehicle
Source text: as §1

[4] = system: ERα+ breast cancer cell lines; experiment: Cell cycle arrest, Example 29
Source text: as §1

[5] = system: ERα+ breast cancer cell lines; experiment: RT-qPCR analysis; details: 0.1 μM
[6] = system: ERα+ breast cancer cell lines in 3D cultures; experiment: 3D culture cancer cell proliferation; details: ~1 μM
Source text: as §1

T47D cells [7] = experiment: Apoptosis induction, T47D, Example 29; details: for apoptosis induction in T47D cells: p<0.0001 vs. vehicle
UCD12 cells = experiment: 2D culture proliferation, UCD12; details: 2D cultures, estrogen-containing media
Source text: as §1

T47D cells [8] = experiment: Migration and invasion inhibition assays, T47D; details: p<0.0001
MCF7 cells [9] = experiment: Migration and invasion inhibition assays, MCF7; details: p<0.0001
T47D cells [10] = experiment: Scratch-wound cell migration assay, Example 24, T47D; details: highest dose examined (5 μM)
Procedure: (§2) This example covers cell migration assays with endoxifen and endoxifen-related compounds. Scratch-wound density and width measurements were tracked for 70 to 100 hours in MCF7 and T47D samples following treatment with a compound. […] FIG. 75 is a series of images of masked and unmasked wounds from the cell migration assays, with the rightmost figure showing invadopodia in cells within wound sites. In FIGS. 76-85, subfigure A is a plot of relative wound density, subfigure B is a plot of wound width, and subfigure C is a series of representative wound images from Day 3 or 4 of treatment. FIGS. 76-85 correspond to endoxifen treatment of MCF7 samples (FIG. 76), endoxifen treatment of T47D samples (FIG. 77), Compound 5b treatment of MCF7 samples (FIG. 78), Compound 5b treatment of T47D samples (FIG. 79), Compound 5a treatment of MCF7 samples (FIG. 80), Compound 5a treatment of T47D samples (FIG. 81), Compound 7b treatment of MCF7 samples (FIG. 82), Compound 7b treatment of T47D samples (FIG. 83), Compound 7a treatment of MCF7 samples (FIG. 84), and Compound 7a treatment of T47D samples (FIG. 85), respectively. […]
(§3) Migration inhibition was primarily detected at the highest tested dose (5 μM), which may be due to the fact that MCF7 and T47D cells are not migratory in nature under normal conditions. […]

MCF7 cells [11] = experiment: Scratch-wound cell migration assay, Example 24, MCF7; details: highest dose examined (5 μM)
Procedure: as §2, §3

[12] = system: estrogen-induced and ERα-mediated activation of an estrogen response element (ERE) luciferase reporter construct in ER+ T47D cells; experiment: Luciferase (ERE reporter) agonist/antagonist assay, ER+ cells; details: CSS+E2 media
T47D cancer cells = experiment: Cell migration (scratch-wound) assay, Example 20; details: high doses (FIGS. 58, 60, 62); 0 to 100 hours
Procedure: This example covers cell migration assays with endoxifen and multiple endoxifen-related compounds on T47D cancer cells. FIGS. 52A, 53A, 54A, 55A, and 56A are plots of relative wound density following treatment with vehicle or 0.02 to 6 μM endoxifen (FIG. 52A), Compound 5b (FIG. 53A), Compound 5a (FIG. 54A), Compound 7a (FIG. 55A), and Compound 7b (FIG. 56A) as a function of time (0 to 100 hours). FIGS. 52B, 53B, 54B, 55B, and 56B are plots of wound width following treatment with vehicle or 0.02 to 6 μM endoxifen (FIG. 52B), Compound 5b (FIG. 53B), Compound 5a (FIG. 54B), Compound 7a (FIG. 55B), and Compound 7b (FIG. 56B) as a function of time (0 to 100 hours). FIGS. 52C, 53C, 54C, 55C, and 56C are series of plots of individual replicates of relative wound density and wound width for endoxifen, Compound 5b, Compound 5a, Compound 7a, and Compound 7b, respectively. FIG. 57 is a plot of relative wound density over time (0 to 100 hours) for a wound treated with vehicle (DMSO), 5 μM endoxifen, 5 μM Compound 5b, and 5 μM Compound 5a. FIG. 58 is a plot of relative wound density over time (0 to 100 hours) for a wound treated with vehicle (DMSO), 5 μM endoxifen, 5 μM Compound 7a, and 5 μM Compound 7b. FIG. 59 is a plot of relative wound density over time (0 to 100 hours) for a wound treated with vehicle (DMSO), 2.5 μM endoxifen, 2.5 μM Compound 5b, and 2.5 μM Compound 5a. […]

T47D cells [13] = experiment: Anti-invasion (scratch wound) assay, Example 25; details: 1.25, 2.5, 5 μM
Source text: This example covers anti-invasion, apoptosis, and toxicity assays for various endoxifen-related compounds against multiple cancer cell lines. FIGS. 90A-F are plots that summarize results of proliferation assays for multiple cancer cell lines (MCF7, T47D, UCD4, and UCD12) in the presence of varying doses of endoxifen and multiple endoxifen-related compounds. FIGS. 91A-C are plots that summarize results of wound confluence measurements from scratch wound assays on T47D cells in the presence of 1.25 μM (FIG. 91A), 2.5 μM (FIG. 91B), and 5 μM (FIG. 91C) endoxifen and multiple endoxifen-related compounds. FIGS. 92A-C are plots that summarize results of wound density measurements from scratch wound assays on T47D cells in the presence of 1.25 μM (FIG. 92A), 2.5 μM (FIG. 92B), and 5 μM (FIG. 92C) endoxifen and multiple endoxifen-related compounds. FIGS. 93A-C are plots that summarize results of wound confluence measurements from scratch wound assays on MCF7 cells in the presence of 1.25 μM (FIG. 93A), 2.5 μM (FIG. 93B), and 5 μM (FIG. 93C) endoxifen and multiple endoxifen-related compounds. FIGS. 94A-C are plots that summarize results of wound density measurements from scratch wound assays on MCF7 cells in the presence of 1.25 μM (FIG. 94A), 2.5 μM (FIG. 94B), and 5 μM (FIG. 94C) endoxifen and multiple endoxifen-related compounds. […]

T47D cells [14] = experiment: 2D culture proliferation, T47D; details: estrogen-deficient conditions
Source text: as §1

| Compound | potency, ranking [1] | anti-proliferative effect, ranking (MCF7 cells [2]) | anti-proliferative effect, inhibition [3] | G1 cell cycle arrest [4] | RT-qPCR analysis, potency ranking [5] | potency in 3D cultures, ranking [6] | apoptosis induction in T47D cells, ranking (T47D cells [7]) | apoptosis induction in T47D cells (T47D cells [7]) | anti-proliferative effect, ranking (UCD12 cells) | migration and invasion inhibition compared with (Z)-endoxifen (T47D cells [8]) | migration and invasion inhibition compared with (Z)-endoxifen (MCF7 cells [9]) | potency at inhibiting the migration and proliferation compared with endoxifen (T47D cells [10]) | potency at inhibiting the migration and proliferation compared with endoxifen (MCF7 cells [11]) | anti-proliferative effects in ER+ cells compared with endoxifen [12] | potency at inhibiting the migration and proliferation of T47D cells compared with endoxifen (T47D cancer cells) | potency at inhibiting the invasion of T47D cells compared with endoxifen (T47D cells [13]) | anti-proliferative activity compared with (Z)-endoxifen (T47D cells [14]) |
| --- | --- | --- | --- | --- | --- | --- | --- | --- | --- | --- | --- | --- | --- | --- | --- | --- | --- |
| CC/C(=C(\c1ccc(O)cc1)c1ccc(OCCNC)cc1)c1ccccc1 [(Z)-endoxifen, (Z)-Endoxifen, reference compound] | most potent | strongest effects | 20-90% | most effective | most potent | comparable, superior potency | superior activity | significantly induced | strongest effects | – | – | – | – | – | – | – | – |
| CC/C(=C(/c1ccc(O)cc1)c1ccc(OCCN(C)C(C)=O)cc1)c1ccccc1 [Compound 7b] | – | – | – | – | – | – | – | significantly induced | – | consistently outperformed (Z)-endoxifen | consistently outperformed (Z)-endoxifen | more potent than endoxifen | more potent than endoxifen | closely resemble that of endoxifen | greater potency than endoxifen | more potent than endoxifen | more effective |
